From PMC8151276, “An Integrated Approach toward NanoBRET Tracers for Analysis of GPCR Ligand Engagement” (Molecules, 2021)

Target: T1, CYSLTR2 (Homo sapiens, UniProt Q9NS75)
T1 construct: purchased Promega (in-house HiBiT-GPCR construct library, NanoBRET)
T1 sequence (Q9NS75 1-346): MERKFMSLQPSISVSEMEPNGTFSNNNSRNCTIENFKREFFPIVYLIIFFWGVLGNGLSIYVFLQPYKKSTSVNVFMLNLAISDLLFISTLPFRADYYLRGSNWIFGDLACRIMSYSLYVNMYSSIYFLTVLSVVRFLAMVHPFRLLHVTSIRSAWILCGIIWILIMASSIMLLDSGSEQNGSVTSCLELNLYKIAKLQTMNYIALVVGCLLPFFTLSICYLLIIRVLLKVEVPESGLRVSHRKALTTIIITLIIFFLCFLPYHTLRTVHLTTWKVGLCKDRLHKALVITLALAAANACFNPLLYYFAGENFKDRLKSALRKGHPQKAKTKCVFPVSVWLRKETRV
Assay: NanoBRET screen HiBiT-CYSLTR2 in HEK293
Assay type: binding
Procedure: Each tracer candidate was screened across the entire library of HiBiT-GPCR constructs using NanoBRET as the detection modality. As depicted in Figure 4A, the specificity of interactions was evaluated through decrease in BRET due to competitive displacement of a bound tracer by excess parental compound. Each tracer was analyzed for binding to each HiBiT-GPCR fusion in the absence and in the presence of competing parental compound. Briefly, HEK293 cells were transfected with HiBiT-GPCR constructs diluted into promoterless DNA to reduce expression and maximize translocation to the cell surface. Each tracer candidate was then screened at concentrations of 1 μM and 0.1 μM across cells expressing these fusions. Cells were treated for 1.5 h with tracer either alone or in the presence of 20 μM competing parental compound (i.e., control). BRET was measured upon addition of purified LgBiT and subsequent complementation with HiBiT genetically fused to a GPCR. The specificity of interactions was assessed through a decrease in BRET signal due to competitive displacement of the bound tracer. To further gauge the robustness of these interactions, the fold response over the control (i.e., BRETtracer/BRETcontrol) was calculated. We chose a 1.5-fold response, which translates to ≥7-fold signal over noise as the minimal threshold required to score an interaction as positive. […]. Below we highlight the screening results obtained for our exemplary fluorescent tracers based on Clozapine, Amitriptyline and AZD1283.
HiBiT-GPCR DNA constructs were diluted in 10 mM Tris pH 8 to a final concentration of 0.01 μg/μL, arrayed in 96-well plates and stored at −20 °C. For transfection, HEK293 cells were suspended in Opti-MEM (without phenol red) supplemented with 2% fetal bovine serum (Seradigm) and 100 units/mL penicillin–streptomycin (Gibco) at a final concentration of 220,000 cells/mL and dispensed into white 96-well plates at 90 μL/well. Subsequent transfections and screens were carried using an Agilent Bravo Automated Liquid Handling Platform. First, the 96-well HiBiT DNA arrays were diluted 25-fold in Opti-MEM (without serum or phenol red) to a final concentration of 0.0004 μg/μL and 20 μL of the diluted DNAs were transferred into new 96-well plates. Next, promoterless carrier DNA (1 μg/μL) was diluted 25-fold (0.04 μg/μL) and then dispensed into the diluted arrays at 20 μL/well. Following brief mixing, Viafect transfection reagent (Promega) diluted 16-fold into Opti-MEM was dispensed into the plates at 40 μL/well. After mixing by pipetting, plates were incubated for 10 min on the pipetting station deck. The DNA-transfection reagent complexes were then added to plates containing cells. To facilitate the screen, 10 μL of DNA-transfection reagent complexes were added in duplicates to the top 4 and bottom 4 rows, resulting in two identical 48-well arrays per plate. Plates with transfected cells were incubated for 18–20 h at 37 °C/5% CO2. A screen of each tracer across the entire library using two different concentrations requires duplicate plates of transfected cells. Depending on the number of tracers being screened, transfections can be scaled up using the same ratios. The next day, for each tracer, four 20× screening solutions in tracer dilution buffer (Promega) were prepared: two duplicates at final concentration of 20 μM and two duplicates at a final concentration of 2 μM. A competing unmodified compound was added to one of each duplicate at a final concentration of 400 μM. The four resulting solutions were diluted 4-fold in Opti-MEM without serum or phenol red to generate 5× solutions (5 µM and 0.5 µM tracer +/− 100 μM competing compound). To screen the library, a BioTek MultiFlo FX liquid dispenser was used to dispense 22.5 µL of tracer solution to the top 4 rows and 22.5 µL tracer + competing compound solution to the 4 bottom rows. Plates were briefly mixed on an orbital shaker and incubated for 1.5 h at room temperature. […]

| SMILES | NanoBRET Fold Response (CYSLTR2, tracer 0.1μM) | NanoBRET Fold Response (CYSLTR2, tracer 1μM) | other results |
| --- | --- | --- | --- |
| CCOC(=O)c1cc(C#N)c(N2CCC(C(=O)NS(=O)(=O)Cc3ccccc3/C=C/C(=O)NCCNC(=O)CCc3ccc4n3[B-](F)(F)[N+]3=C(c5ccc[nH]5)C=CC3=C4)CC2)nc1C [AZD1283-1-NB590] | – | – | NanoBRET Fold Response (CYSLTR2, 0.1μM): 1.07; NanoBRET Fold Response (CYSLTR2, 1μM): 0.97 |
| N#CN=C(NCCCOc1cccc(CN2CCCCC2)c1)NCCNC(=O)CCOCCOCCOCCOCCNC(=O)CCc1ccc2n1[B-](F)(F)[N+]1=C(c3ccc[nH]3)C=CC1=C2 [Aminopotentidine-2-NB590] | 1.05 | 0.98 | – |
| CN(C)CCC=C1c2ccccc2CCc2ccc(C(=O)NCCNC(=O)CCOCCOCCOCCOCCNC(=O)CCc3ccc4n3[B-](F)(F)[N+]3=C(c5ccc[nH]5)C=CC3=C4)cc21 [Amitriptyline-b-2-NB590] | 0.95 | 1.04 | – |
| COc1ccc2c(n1)c(CCNC(C)=O)cn2CCNC(=O)CCc1ccc2n1[B-](F)(F)[N+]1=C(c3ccc[nH]3)C=CC1=C2 [Azamelatonin-1-NB590] | – | – | NanoBRET Fold Response (0.1μM tracer): 1.37; NanoBRET Fold Response (1μM tracer): 0.46 |
| COc1ccc2[nH]c(-c3ccc(CNC(=O)CCOCCOCCOCCOCCNC(=O)CCc4ccc5n4[B-](F)(F)[N+]4=C(c6ccc[nH]6)C=CC4=C5)cc3)c(CCNC(C)=O)c2n1 [AzomelatoninICO9-2-NB590] | – | – | NanoBRET Fold Response (0.1μM tracer): 1.03; NanoBRET Fold Response (1μM tracer): 1.06 |
| O=C(CCOCCOCCOCCOCCNC(=O)CCc1ccc2n1[B-](F)(F)[N+]1=C(c3ccc[nH]3)C=CC1=C2)NCCCN1CCN(C2=Nc3cc(Cl)ccc3Nc3ccccc32)CC1 [Clozapine-a-2-NB590] | – | – | NanoBRET Fold Response (CYSLTR2, 0.1μM tracer): 0.99; NanoBRET Fold Response (CYSLTR2, 1μM tracer): 1.03 |
| CN1CCN(C2=Nc3cc(Cl)ccc3Nc3ccc(CNC(=O)CCOCCOCCOCCOCCNC(=O)CCc4ccc5n4[B-](F)(F)[N+]4=C(c6ccc[nH]6)C=CC4=C5)cc32)CC1 [Clozapine-b-2-NB590] | – | – | NanoBRET Fold Response (CYSLTR2, 0.1μM tracer): 1.01; NanoBRET Fold Response (CYSLTR2, 1μM tracer): 1.03 |
| CN1CCN(C2=Nc3cc(Cl)ccc3N(CC(=O)NCCOCCOCCOCCOCCNC(=O)CCc3ccc4n3[B-](F)(F)[N+]3=C(c5ccc[nH]5)C=CC3=C4)c3ccccc32)CC1 [Clozapine-c-2-NB590] | – | – | NanoBRET Fold Response (CYSLTR2, 0.1μM tracer): 1.04; NanoBRET Fold Response (CYSLTR2, 1μM tracer): 1.07 |
| O=C(CCOCCOCCOCCOCCNC(=O)CCc1ccc2n1[B-](F)(F)[N+]1=C(c3ccc[nH]3)C=CC1=C2)NCCCN1CCN(C2=Nc3ccccc3Oc3ccc(Cl)cc32)CC1 [Loxapine-a-2-NB590] | 0.91 | 1.02 | – |
| COc1ccccc1N1CCN(CCCCN2C(=O)c3ccc(CNC(=O)CCOCCNC(=O)c4ccc(CNC(=O)CCc5ccc6n5[B-](F)(F)[N+]5=C(c7ccc[nH]7)C=CC5=C6)cc4)cc3C2=O)CC1 [NAN-190-3-NB590] | 1.11 | 1.31 | – |
| O=C(CCc1ccc2n1[B-](F)(F)[N+]1=C(c3ccc[nH]3)C=CC1=C2)NCc1ccc(C(=O)NCCOCCC(=O)N[C@@H]2CC[C@@]3(O)[C@H]4Cc5ccc(O)c6c5[C@@]3(CCN4CC3CC3)[C@H]2O6)cc1 [Naltrexone-3-NB590] | 1.05 | 0.98 | – |
| Cc1cc2c(s1)Nc1ccccc1N=C2N1CCN(CCCNC(=O)CCOCCOCCOCCOCCNC(=O)CCc2ccc3n2[B-](F)(F)[N+]2=C(c4ccc[nH]4)C=CC2=C3)CC1 [Olanzapine-a-2-NB590] | 0.95 | 0.99 | – |
| O=C(CCc1ccc2n1[B-](F)(F)[N+]1=C(c3ccc[nH]3)C=CC1=C2)NCc1ccc(C(=O)NCCOCCOCCNCC(O)COc2cccc3ccccc23)cc1 (stereo not drawn) [Propranolol-3-NB590] | – | – | NanoBRET Fold Response (CYSLTR2, 0.1μM): 0.54; NanoBRET Fold Response (CYSLTR2, 1μM): 1.01 |
| O=C(CCc1ccc2n1[B-](F)(F)[N+]1=C(c3ccc[nH]3)C=CC1=C2)NCCOCCOCCNC(=O)OCCOCCN1CCN(C2=Nc3ccccc3Sc3ccccc32)CC1 [Quetiapine-a-2-NB590] | 0.88 | 0.85 | – |
| Cc1nc2n(c(=O)c1CCN1CCC(c3noc4cc(F)ccc34)CC1)CCCC2OC(=O)NCCOCCOCCOCCOCCNC(=O)CCc1ccc2n1[B-](F)(F)[N+]1=C(c3ccc[nH]3)C=CC1=C2 (stereo not drawn) [Risperidone-2-NB590] | 0.97 | 1.15 | – |
| CC(C)N(CC[C@H](c1ccccc1)c1cc(CCNC(=O)CCOCCOCCOCCOCCNC(=O)CCc2ccc3n2[B-](F)(F)[N+]2=C(c4ccc[nH]4)C=CC2=C3)ccc1O)C(C)C [Tolterodine-2-NB590] | 0.93 | 1.00 | – |
| CC(C)N(CC[C@H](c1ccccc1)c1cc(CCNC(=O)c2ccc(CNC(=O)CCc3ccc4n3[B-](F)(F)[N+]3=C(c5ccc[nH]5)C=CC3=C4)cc2)ccc1O)C(C)C [Tolterodine-BZ-NB590] | 1.00 | 1.08 | – |
| CCCn1c(=O)c2[nH]c(-c3ccc(OCC(=O)NCCNC(=O)CCOCCNC(=O)c4ccc(CNC(=O)CCc5ccc6n5[B-](F)(F)[N+]5=C(c7ccc[nH]7)C=CC5=C6)cc4)cc3)nc2n(CCC)c1=O [XAC-3-NB590] | 1.08 | 1.01 | – |
